Source: US10010569B2, “Seaweed extracts, unsaturated fatty acids, and methods of treatment” (priority 2012, dated 2018)
Values joined by “and” are separate entries in the source; they are usually repeats but may differ in a detail not shown here. Identical values can stand only once.

Legend:
Assay type in all cases: cell-based, human
ARE = assay: ARE-luc reporter assay; conditions: IMR-32 cells
Method: IMR-32 cells (33,000 cells/well) were transiently transfected with ARE-luc plasmid (100 ng/well) using FuGENE® HD (Roche Diagnostics) as a transfection reagent (1:3, w/v). The cells were dispensed into each well of a 96-well plate and incubated for 24 h. They were then treated with solvent control (DMSO or EtOH, 1%, v/v) or individual extracts/fractions/compounds for 24 h before ARE activities were detected by using BriteLite detection reagent (PerkinElmer). Relative fold activation for the treated samples over solvent control was reported. The ARE-luciferase (ARE-luc) reporter contains the ARE sequence of human NQO1: 5′-[…]-3′ [Moehlenkamp, J. D.; Johnson, J. A. Activation of antioxidant/electrophile-responsive elements in IMR-32 human neuroblastoma cells. Arch Biochem Biophys. 363:98-106; 1999].

NQO1 [1] = assay: NQO1 mRNA levels by qPCR in IMR-32 cells; conditions: 1 μg/ml, 12 h
Method: (§1) Cultured cells were treated in the same way as described for the immunoblot experiments. After 12 h, total RNA was extracted using a commercial kit (RNeasy Mini Kit, Qiagen). For mice tissues, total RNA was extracted using TRIzol® reagent (Invitrogen) following the standard manufacturer's protocol.
(§2) cDNA synthesis and qPCR experiments for both cultured cells and mice tissues were performed following the same procedure. 2 μg of each RNA sample was reverse-transcribed into cDNA, which served as a template for TagMan® gene expression assays (Applied Biosystems). For each qPCR run, a total reaction volume of 25 μl was prepared consisting of 12.5 μl of TaqMan 2× universal master mix, 1.25 μl of a 20× TaqMan gene expression assay probe, 1 μl of cDNA and 10.25 μl of RNase-free sterile water. The reactions were dispensed into 96-well optical reaction plates (Applied Biosystems) and detected in an Applied Biosystems® 7300 Real-Time PCR System. The thermocycler program consisted of 2 min at 50° C., 10 min at 95° C., and 40 cycles of 95° C. for 15 s and 60° C. for 1 min. For normalization, GAPDH expression was used as an internal control for human cells (IMR-32) and β-actin for mice tissue samples.

NRF2 = NRF2 mRNA levels by qPCR in IMR-32 cells; conditions: 1-10 μg/ml, 12 h
Method: as §1, §2

NQO1 [2] = assay: NQO1 protein expression by immunoblot in IMR-32 cells; conditions: 24 h
Method: (§3) IMR-32 cells (800,000 cells/well) were seeded into each well of 6-well plates. 24 h later, cells were treated with solvent control (EtOH, 0.5%, v/v) or fractions/compounds. After another 24 h, whole cell lysates were collected in PhosphoSafe buffer (Novagen) following the manufacturer's protocol and stored at −80° C. until analyzed. For each sample, the protein concentration was measured using a BCA assay kit (Pierce). Samples containing equal amount of total protein were separated by SDS-PAGE (NuPAGE® Novex® 4-12% Bis-Tris Mini gels, Invitrogen), transferred onto a PVDF membrane, and incubated overnight with the indicated primary antibodies at 4° C. on an orbital shaker. The membranes were then incubated with the corresponding secondary antibodies (HRP-linked) for 1 h at room temperature and detected with Supersignal Femto Western Blotting kit (Pierce). Anti-NQO1 (mouse) antibody was from Abcam; anti-β-actin (rabbit), anti-mouse-HRP, and anti-rabbit-HRP antibodies were from Cell Signaling Technology.

glutathione = assay: Glutathione assay in IMR-32 cells
Method: Glutathione assays were performed following the manufacturer's protocol (Sigma). Briefly, IMR-32 cells (800,000 cells/well) were seeded into 6-well plates and incubated at 37° C. The cells were then treated with solvent control (EtOH, 0.5%, v/v) or compound 1 for the indicated period of time. At the end of each treatment, the cells were washed twice with Dulbecco's phosphate buffered saline (DPBS), harvested in 200 μl of DPBS, and pelleted at 600×g for 10 min at 4° C. After removal of DPBS, the cell pellet was deproteinized and re-suspended in 3 volumes of 5% sulfosalicylic acid solution (v/v). The suspension was frozen (liquid N2) and thawed (37° C. water bath) twice and then incubated at 4° C. for 5 min. The cell debris was spun down at 10,000×g for 10 min at 4° C. The supernatant was transferred to fresh tubes and used as glutathione stock. The concentration of the total glutathione (GSH+GSSG) was measured and compared with a standard curve of reduced glutathione (GSH).

NQO1 [3] = assay: RNA interference (NRF2 siRNA) and NQO1 immunoblot; conditions: IMR-32 cells, NRF2 siRNA 48 h, then 24 h treatment
Method: as §3
IMR-32 cells (600,000 cells/well) were seeded in 6-well plates and incubated at 37° C. for 24 h. […] The treated cells were then lysed in PhosphoSafe buffer and whole cell lysates analyzed by immunoblot (see above). […]

NQO1 [4] = assay: Kinase inhibitor pre-treatment and NQO1 immunoblot; conditions: 10 μg/ml, 24 h, 30 min pre-treatment with PD98059 50 μM
Method: as §3
For assays in the presence of an antioxidant, the cells were pretreated with excess NAC (1 mM, pH 7.50) for 2 h before they were treated with solvent control or the compounds (see above). […]

[5] = 10 μg/ml, 24 h, over solvent control
[6] = 32 μg/ml, 24 h, over solvent control

With `CCCCCCCC(=O)/C=C/CCCCCC(=O)O` [Compound 2, 7(E)-9-keto-hexadec-7-enoic acid] as the compound, how does the ARE activation (ARE; [5]) read?
The ARE activation was 2.8 fold.

And the ARE activation (ARE; [6])?
Its ARE activation is 30.3 fold.

Which ARE activation (ARE; [5]) does the source give for `CCCCCCCCCC(=O)/C=C/CCCCCC(N)=O` [Compound 3, 7(E)-9-keto-octadec-7-enamide] here?
Its ARE activation is 4.5 fold.

What about the ARE activation (ARE; [6]) of the same compound?
Its ARE activation is 13.2 fold.

`CC(C)(C)c1cc(O)ccc1O` [tBHQ, reference compound] was tested. Which ARE activation (ARE; positive control, concentration not given) did it give?
The ARE activation was 14.9 fold.

How did the ARE activation (ARE; [5]) turn out when `CCCCCCCCCC(=O)/C=C/CCCCCC(=O)O` [Compound 1, 7(E)-9-keto-octadec-7-enoic acid] was run?
Its ARE activation is 17.6 fold.

And the “NQO1 mRNA level” value (NQO1 [1])?
Its value is 1.5 fold.

And the “NRF2 mRNA levels” value (NRF2)?
Its value is “remained unchanged”.

And the NQO1 protein expression (NQO1 [2])?
Its NQO1 protein expression is “detectable starting at 1 μg/ml and was the highest at 10 μg/ml”.

What about the “glutathione level restored relative to basal level” value (glutathione; at 16 h) of the same compound?
Its value is “more than 50%”.

What about the “transient decrease of glutathione level” value (glutathione; until 8 h) of the same compound?
The value was < 30% and ~30%.

What about the “glutathione level versus baseline” value (glutathione; up to 24 h) of the same compound?
Its value is “stayed above baseline”.

What about the “NQO1 expression in NRF2-depleted cells” value (NQO1 [3]) of the same compound?
The value was “virtually undetectable”.

And the “NQO1 expression in the presence of a MAPK (MEK1) inhibitor” value (NQO1 [4])?
Its value is “induced”.
